The structures appear in SMILES notation.

Among the data in paper PMC3742539, “ε Subunit of Bacillus subtilis F1-ATPase Relieves MgADP Inhibition” (PLoS ONE, 2013) are inhibition values, retold here.

The target in test [1] is T1, α3β3γ complex of BF1 (F1-ATPase from Bacillus subtilis) (Bacillus subtilis, UniProt P37808+P37809).
T1 construct: gene atpD; recombinant α3β3γ subcomplex without δ and ε; His6-tag at N-terminus of β (kept); initiation codons of α and γ changed to ATG; expressed in E. coli BL21(DE3) from pET21-BF1; nucleotide-free; with ATP synthase gamma chain
T1 sequence (P37809 whole entry): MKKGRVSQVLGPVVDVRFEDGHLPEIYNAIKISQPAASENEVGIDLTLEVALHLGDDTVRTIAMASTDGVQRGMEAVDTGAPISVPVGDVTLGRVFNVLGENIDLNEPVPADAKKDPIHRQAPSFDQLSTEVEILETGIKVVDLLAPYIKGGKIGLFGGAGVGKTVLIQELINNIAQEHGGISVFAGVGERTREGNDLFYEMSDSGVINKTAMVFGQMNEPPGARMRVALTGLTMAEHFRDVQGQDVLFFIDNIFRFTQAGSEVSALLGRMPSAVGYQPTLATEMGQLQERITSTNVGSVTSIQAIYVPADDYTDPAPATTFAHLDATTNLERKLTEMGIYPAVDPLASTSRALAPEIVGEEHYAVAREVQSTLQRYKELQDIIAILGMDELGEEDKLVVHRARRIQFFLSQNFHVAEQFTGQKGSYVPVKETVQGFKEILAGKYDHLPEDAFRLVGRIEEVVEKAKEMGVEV
T1 sequence (P37808 2-502): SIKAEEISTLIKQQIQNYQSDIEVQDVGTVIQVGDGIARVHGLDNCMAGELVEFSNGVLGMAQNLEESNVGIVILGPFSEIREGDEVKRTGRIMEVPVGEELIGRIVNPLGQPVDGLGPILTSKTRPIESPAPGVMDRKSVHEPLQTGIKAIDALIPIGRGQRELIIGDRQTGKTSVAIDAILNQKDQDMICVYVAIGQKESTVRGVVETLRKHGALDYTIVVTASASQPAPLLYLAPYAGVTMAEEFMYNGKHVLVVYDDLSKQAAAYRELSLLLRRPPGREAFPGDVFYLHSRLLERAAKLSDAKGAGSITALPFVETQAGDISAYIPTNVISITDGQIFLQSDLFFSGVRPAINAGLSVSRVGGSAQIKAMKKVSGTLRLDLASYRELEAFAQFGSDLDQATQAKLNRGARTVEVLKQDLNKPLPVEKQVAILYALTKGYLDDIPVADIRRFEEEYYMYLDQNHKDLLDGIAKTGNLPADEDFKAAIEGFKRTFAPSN
T1 sequence (P37810 whole entry, further chain): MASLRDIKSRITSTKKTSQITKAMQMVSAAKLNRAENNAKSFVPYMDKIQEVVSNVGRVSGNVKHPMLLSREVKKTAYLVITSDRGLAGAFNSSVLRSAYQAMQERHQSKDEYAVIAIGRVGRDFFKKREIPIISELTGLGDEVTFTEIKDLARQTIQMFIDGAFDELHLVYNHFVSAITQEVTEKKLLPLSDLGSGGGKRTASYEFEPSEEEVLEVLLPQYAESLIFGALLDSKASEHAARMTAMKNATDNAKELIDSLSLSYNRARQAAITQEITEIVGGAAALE
Nature of the test: residual initial ATPase activity ([…]-4 s) after preincubation with MgADP. Format: biochemical. Conditions: read-out: % inhibition at 1:1 MgADP (5 μM).

Test [2] has as its target T2, α3β3γε complex of BF1 (F1-ATPase from Bacillus subtilis) (Bacillus subtilis, UniProt P37808+P37809).
T2 construct: gene atpD; recombinant α3β3γ (His6-tag at N-terminus of β, kept) reconstituted with excess separately purified BF1 ε subunit; no δ; E. coli expression; with ATP synthase gamma chain; ATP synthase epsilon chain
Described as above. Format: biochemical. Conditions: read-out: % inhibition at 1:1 MgADP (5 μM).

T2 sequence (P37812 whole entry): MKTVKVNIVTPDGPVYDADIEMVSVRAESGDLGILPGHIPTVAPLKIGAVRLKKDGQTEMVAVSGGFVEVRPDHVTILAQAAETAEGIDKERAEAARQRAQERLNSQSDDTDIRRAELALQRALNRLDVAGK
T2 sequence (P37809 whole entry): as the sequence (P37809 whole entry) above
T2 sequence (P37808 2-502): as the sequence (P37808 2-502) above
T2 sequence (P37810 whole entry, further chain): as the sequence (P37810 whole entry, further chain) above

Usually inhibition stands for the change of the read-out against control, counted positive when it falls. On to `Nc1ncnc2c1ncn2[C@@H]1O[C@H](COP(=O)(O)OP(=O)(O)O)[C@@H](O)[C@H]1O` [MgADP], for which the inhibition at 5 µM in test [1] is about 50%; in test [2] it was about 20%.
